Measurements: patent US11246898B2 (priority 2017, dated 2022)
Read-outs that look alike come from different tables or passages of the source.

Key:
[1] = in vitro; details: African green monkey
[2] = test system: Ebola virus/Zaire; assay: microbe, parasite or virus in culture; assay type: cell-based; details: Zaire ebolavirus
[3] = test system: Ebola virus/Zaire; assay type: cell-based
[4] = test system: CellTiter96 (MTS) cells

Compound | CC50 [1] | EC50 [2] | EC50 [3] | EC90 [3] | CC50 [4]
NC(=O)c1nc(F)c[nH]c1=O [Favipiravir] | > 1000 µM | 96 µM |  |  | 
Allophycocyanin |  |  | 1.77 µg/mL | >400 µg/mL | >400 µg/mL
